Experimental data published in patent publication US8183394B2, “Protease inhibitor precursor synthesis” (priority 2005, dated 2012).

How the values were obtained:
Type in all cases: cell-based
[1] = system: HIV mutant strain Mutant 1; test: cellular assay using MT4-LTR-EGFP cells for anti-viral activity, mutant 1; conditions: Human immunodeficiency virus 1, 72 h, read-out: pEC50 Mutant 1 (converted)
Procedure: (§1) The compounds were tested in a cellular assay using the MT4-LTR-EGFP cells for anti-viral activity.
(§2) The cellular assay was performed according to the following procedure. HIV- or mock-infected MT4-LTR-EGFP cells were incubated for three days in the presence of various concentrations of the compounds mentioned above. Upon infection, the viral tat protein activates the GFP reporter. At the end of the incubation period, the GFP signal was measured. In the virus control samples (in the absence of any inhibitor) the maximal fluorescent signal was obtained. The inhibitory activity of the compound was monitored on the virus-infected cells and EC50 values were calculated. These values represent the amount of the compound required to protect 50% of the cells from virus infection. The data presented in table 1 contain the pEC50 values, being the negative logarithm of the EC50-values.

[2] = system: HIV mutant strain Mutant 2; test: cellular assay using MT4-LTR-EGFP cells for anti-viral activity, mutant 2; conditions: Human immunodeficiency virus 1, 72 h, read-out: pEC50 Mutant 2 (converted)
Procedure: as §1, §2

[3] = system: HIV mutant strain Mutant 4; test: cellular assay using MT4-LTR-EGFP cells for anti-viral activity, mutant 4; conditions: Human immunodeficiency virus 1, 72 h, read-out: pEC50 Mutant 4 (converted)
Procedure: as §1, §2

[4] = system: wild type laboratory HIV strain (WT IIIB-2-001); test: microbe, parasite or virus in culture; conditions: Human immunodeficiency virus 1, 72 h, MT4-LTR-EGFP cells, three days incubation, GFP signal
Procedure: as §1
as §2, with “In the virus control samples (in the absence of any inhibitor) the maximal fluorescent signal was obtained.” left out

[5] = system: HIV mutant strain Mutant 3; test: cellular assay using MT4-LTR-EGFP cells for anti-viral activity, mutant 3; conditions: Human immunodeficiency virus 1, 72 h, read-out: pEC50 Mutant 3 (converted)
Procedure: as §1, §2

| Structure (SMILES) | EC50 [1] [µM] | EC50 [2] [µM] | EC50 [3] [µM] | EC50 [4] [µM] | EC50 [5] [µM] |
| --- | --- | --- | --- | --- | --- |
| CC(C)CN(C[C@@H](O)[C@H](Cc1ccccc1)NC(=O)O[C@H]1CO[C@H]2OCC[C@H]21)S(=O)(=O)c1ccc(N)cc1 [TMC 114, (3R,3aS,6aR)-hexahydrofuro[2,3-b]furan-3-yl N-[(1S,2R)-1-benzyl-2-hydroxy-3-(N1-isobutylsulfanilamido)propyl]carbamate, reference compound] | 0.00813 | 0.794 | 3.72 |  |  |
| CC(C)CN(C[C@@H](O)[C@H](Cc1ccccc1)NC(=O)O[C@H]1CO[C@H]2OC[C@H](OCc3ccccc3)[C@H]21)S(=O)(=O)c1ccc(N)cc1 [Compound 13, {3-[(4-amino-benzenesulfonyl)-isobutyl-amino]-1-benzyl-2-hydroxy-propyl}-carbamic acid 4-benzyloxy-hexahydro-furo[2,3-b]furan-3-yl ester] | 0.01 | 0.316 | 2 | 0.00158 | 0.126 |
